For test [1], the system named is Lewis lung carcinoma (LLC). Briefly: Syngeneic Lewis lung carcinoma model: tumor growth after i.t. Ad-RTS vectors with oral AL. Format: in vivo, mice. To be noted: oral AL alone in feed at 1000 ppm (~225 mg/kg/day). An excerpt: Current cancer immunotherapies have provided limited success in the clinic and innovative strategies are required to further enhance the effectiveness of an anti-tumor immune response. This study assessed anti-tumor activity utilizing intratumoral (i.t.) administration of adenovirus (Ad) with the novel Rheoswitch Therapeutic System® (RTS®), an inducible promoter system, for regulated expression of murine IL-12 or IFNa. Oral administration of a small molecule activator ligand (AL), INXN-1001, regulates the expression of IL-12 in Ad-RTS-mIL-12 and IFNa in Ad-RTS-mIFNa. The regulated expression and therapeutic benefit of IL-12 and IFNa from i.t. administered Ad-RTS-mIL-12 and Ad-RTS-mIFNa, either alone or in combination, was examined in syngeneic Lewis lung carcinoma (LLC) and syngeneic mammary carcinoma (4T1) models.
In contrast, i.t. injection with 10^10 vp Ad-RTS-mIL-12 or Ad-RTS-mIFNa and daily oral AL led to significant tumor growth inhibition by day 25 (72 and 71%, respectively; p<0.05). […] Future studies will investigate the mechanism by which both IL-12 and IFNα exert their anti-tumor effect in the above tumor models.
LLC and 4T1 cells were transiently transduced with Ad-RTS-murine IL12 or Ad-RTS-murine IFNa at a MOI of 100. […] Supernatants were collected at 48 h and cytokine levels assessed by ELISA. n=3, mean±s.d. […]

A short description of test [2]: Plasma HuEPO expression as a function of activator ligand dose in chow after IM AAV-HuEPO (0034A). Format: in vivo. On the procedure: Animals were anesthetized, their quadriceps were visualized and the injection site sterilized. The mice were injected with vector using a 0.5 ml insulin syringe and a 29.5 gauge needle. Each animal was injected with total of 10^11 virus genomes in a 100 μl volume. After the procedure, the animals were placed in their cage and observed for normal ambulation.
Plasma samples were assayed for the presence of human erythropoietin using Enzyme Linked Immunosorbent Assay (ELISA) (StemCell Technologies, #01630).
Animals were bled for baseline HCT levels, followed by IM administration of 10^11 AAV-HuEPO viral genomes per animal (0034A). Animals received activator ligand-containing chow, with activator ligand concentrations 1000 mg/kg (18-1000), 250 mg/kg (18-250), 100 mg/kg (18-100), 50 mg/kg (18-50), or 0 mg/kg (18-0) starting on the day of AAV administration. Control animals received either vector administration and normal chow (no activator ligand, 18-0), or they received vehicle-alone IM administration (saline) with (18-1000) or without (18-0) activator ligand. HCT and HuEPO expression levels were measured in all groups every 7 days.

The next test deals with murine melanoma, B16F0. Briefly: Bilateral B16F0 melanoma model: tumor volume after intratumoral Ad-RTS-mIL12. It counts as in vivo, C57BL/6 mice. To be noted: day 21 post cell inoculation; activator ligand chow 1000 mg/kg alone, no vector. An excerpt:
We investigated if the treatment of a local tumor with Ad-RTS-mIL12 (resulting in local tumor growth regression) would also lead to anti-tumor activity in the distant tumor. Toward this goal, we developed melanoma tumors on both flank regions of immunocompetent mice (C57BL/6) and treated the tumor on the right flank with Ad-RTS-mIL12 in the presence of activator ligand.
Six- to eight-week-old female C57B1/6 mice were purchased from Harlan (USA). Animal care and experimental procedures were performed according to Intrexon's Institutional Animal Care and Use Committee guidelines.
The murine melanoma (B16F0) cells were purchased from ATCC (Manassas, Va.). B16F0 cells were grown in Dulbecco's modified Eagle's medium (ATCC, Manassas, Va.), The DMEM was supplemented with heat-inactivated fetal calf serum (FCS) 10% v/v, 2-mM L-glutamine (Atlanta Biologicals, Inc, Lawrenceville, Ga.), 100 IU/ml […], and 100 μg/ml streptomycin. The cells were grown at 37° C. in 5% CO2. All cell lines were routinely tested and found to be free of mycoplasma. […]
Vector was administered intratumorally on Day 12 and Day 19 post tumor cell inoculation. Tumor size and body weight of each mouse were monitored three times a week until the end of the study. […]
The tumor volumes were calculated using the formula, L×W^2/2. […]

These results are taken from US9402919B2, “Vectors conditionally expressing protein” (Intrexon Corporation, priority 2011, dated 2016).

Regarding `CCC[C@@H](N(NC(=O)c1cccc(OC)c1CC)C(=O)c1cc(C)cc(C)c1)C(C)(C)C` [AL], the “inhibition of tumor growth compared to control, untreated tumors” value in test [1] is on record as “did not result in significant inhibition of tumor growth”.

`CCC[C@@H](N(NC(=O)c1cccc(OC)c1CC)C(=O)c1cc(C)cc(C)c1)C(C)(C)C` [activator ligand, (R)-3,5-Dimethyl-benzoic acid N-(1-tert-butyl-butyl)-N′-(2-ethyl-3-methoxy-benzoyl)-hydrazide]: the “plasma HuEPO expression” value is recorded as “detectable” in test [2] (ligand chow 50 mg/kg (18-50), 14 and 21 days, 0034A IM); at most 8 mU/ml in test [2] (ligand chow 50 mg/kg (18-50), 7 days, 0034A 10^11 viral genomes IM, limit of sensitivity of the assay); “lower HuEPO expression” in test [2] (ligand chow 100 mg/kg (18-100), 7 days, 0034A IM). In the test on murine melanoma, B16F0, the “average tumor volume, right flank tumor” value was found to be 924±80 mm^3.
